Measured values: ChEMBL document CHEMBL1149616, “Antiproliferative, low-calcemic, fluorinated sulfone analogs of 1alpha,25-dihydroxyvitamin D3: chemical synthesis and biological evaluation” (Bioorg Med Chem, 2007)
Activity calls are given as the source filed them. The calls are words filed in the database; no cut-off is given here.

What was measured:
[1] = system: Keratinocyte; experiment: Antiproliferative activity against mouse keratinocytes at 3 to 7 nM; type: functional, cell-based
[2] = system: Keratinocyte; experiment: Antiproliferative activity against mouse keratinocytes at 7 nM; type: functional, cell-based

Row | Compound | Activity [1] | Activity [2]
1 | C=C1/C(=C\C=C2/CCC[C@]3(C)[C@@H]([C@@H](C)OCCCS(=O)(=O)C(F)(F)F)CC[C@@H]23)C[C@@H](O)C[C@@H]1O | Active | 
2 | C=C1/C(=C\C=C2/CCC[C@]3(C)C([C@H](C)CCCS(=O)(=O)C(F)(F)F)=CC[C@@H]23)C[C@@H](O)C[C@@H]1O |  | Active
